Measurements reported in patent publication US10815275B2, “Antimicrobial peptoids with improved selectivity and use thereof” (priority 2018, dated 2020).
Non-standard residues stand in square brackets, D forms with d. Residues, ends and D or L forms follow the SMILES beside them. Nspe = C[C@H](NCC(=O)O)c1ccccc1; Nlys = NCCCCNCC(=O)O

How the values were obtained:
[1] = Metabolic stability in human liver S9 fraction, HPLC; assay type: in vitro ADME; conditions: 37° C., after 24 hours
Method: In order to identify metabolic stability of the peptoids synthesized in Preparation Example 1, such peptoids were subjected to enzymatic reaction using S9 fraction which is a mixture of human liver tissue-extracted metabolic enzymes. Thereafter, for the reaction products, metabolites were quantitated using HPLC.
Specifically, Peptoid NOS. 1 and 4, and Pexiganan as a peptide control (40 μL each, 100 μM) were treated with […], 3.3 mM MgCl2, and 1.3 mM NADPH buffer (306 μL, pH=7.4), to prepare respective samples. The respective samples were treated with S9 fraction (2 μL, 0.1 mg/mL) and then incubated at a temperature of 37° C. When 0, 1, 4, and 24 hours had elapsed after treatment with the S9 fraction, 40 μL of each sample was taken out, and acetonitrile containing the same amount of 0.1% trifluoroacetic acid was used to stop activity of enzymes contained in the S9 fraction. Thereafter, proteins precipitated with acetonitrile were centrifuged at a condition of 1,000×g for 10 minutes at a temperature of 4° C. Then, supernatant was analyzed by HPLC to identify an amount of the remaining peptoid which had not been degraded by the enzymes in the S9 fraction.

E. coli = experiment: Selectivity analysis, HD10 divided by MIC for E. coli; conditions: HD10 of Table 6 divided by MIC for E. coli ATCC25922
Method: In order to identify changes in selectivity depending on alteration of degree of folding in helical structure of peptoids, selectivity of each peptoid was calculated using the resultant values measured in the Experimental Examples 1 and 2. The selectivity was obtained by dividing the HD10 value by the minimum inhibitory concentration for E. coli (Table 8).

in vitro = assay type: cell-based; conditions: concentration indicating 50% survival, 24 h, MTS; read-out: LC50
Outline: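 Human lung […] cells, 1.3×10^4 per well in DMEM with 10% FBS, incubated overnight, then treated 24 h with 2-fold serially diluted peptoid at 37° C, 5% CO2. MTS added for 4 hours, absorbance 490 nm; % survival relative to untreated control cells.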

For `C[C@@H](c1ccccc1)N(CC(N)=O)C(=O)CN(C(=O)CN(CCCCN)C(=O)CN(C(=O)CN(C(=O)CN(CCCCN)C(=O)CN(C(=O)CN(C(=O)CN(CCCCN)C(=O)CN(C(=O)CN(C(=O)CNCCCCN)[C@@H](C)c1ccccc1)[C@@H](C)c1ccccc1)[C@@H](C)c1ccccc1)[C@@H](C)c1ccccc1)[C@@H](C)c1ccccc1)[C@@H](C)c1ccccc1)[C@@H](C)c1ccccc1` [compound 1] (H-[Nlys][Nspe][Nspe][Nlys][Nspe][Nspe][Nlys][Nspe][Nspe][Nlys][Nspe][Nspe]-NH2), the “remaining amount after S9 fraction treatment” value ([1]; human liver S9 fraction, 1440 min) was “about 64%”, the remaining at 24 h, 11.5 μM ([1]; human, s9, pH 7.4, human liver S9 fraction, read-out: remaining amount after S9 fraction treatment) was no less than 60% and the “Selectivity [HD10/MIC (E. coli)]” value (E. coli) was 0.4. It also gave a CC50 at 24 h (in vitro) of 8 µM.
